The results in this text go back to US12599608B2, “Methods for treating cardiac valve disease” (The Regents of the University of California, priority 2018, dated 2026).

Entries after “also recorded” stand apart in the source; their conditions may differ.

For experiment [1], the system named is N1^+/− ECs. Briefly: Validation trials of screen candidates by targeted RNA-seq with the trained KNN algorithm. The following applies: duplicate or triplicate; one or more replicates classified as WT. The class given is cell-based, human. The method, then: Starting on day 15 of differentiation, WT ECs were exposed to 10 μM DMSO (dimethyl sulfoxide) (n=80) while isogenic N1^+/− ECs were exposed to either 10 μM DMSO (n=80) or one of the small molecules from the LOPAC (1280 molecules) (Sigma LO1280) or Sheng Ding (315 molecules) chemical libraries. DMSO or small molecules were renewed with EC media (ScienCell #1001) changes on alternating days until the cells were ultimately collected for analysis on day 21. ECs were imaged using the IN Cell Analyzer on day 21 to evaluate morphology and cell death; wells with extensive cell death were eliminated from final analyses. For validation experiments, promising small molecules identified from the initial screen were applied to N1^+/− ECs in duplicate or triplicate along with controls of DMSO-exposed WT and N1^+/− ECs (n=4 each) using the same process as the initial screen described above.
ECs were lysed and RNA was isolated using the Qiagen RNeasy 96-well purification kit. RNA was diluted so that it was between the 10 pg-1 ng range accepted by the Cellular Research Precise targeted RNA-seq (RNA sequencing) system. Targeted RNA-seq libraries were prepared as per the Cellular Research Precise protocol (Rev 03092015), which includes both molecule and sample barcoding. The selected 119 target genes (see Table 1) included 3 low-expressing housekeeping genes for normalization (CHMP2A, C1orf43, REEP5) and either predicted central regulatory nodes or peripheral genes positioned within varied regions of the N1 network to permit identification of small molecules that affected central nodes as well as those that may have a synergistic effect in combination due to regulating different aspects of the network. Briefly, RNA was added to the Precise Encoding Plate containing indexed dT primer, dNTPs, and Spike-in mRNA controls and incubated at 65° C. for 3 minutes followed by cooling on ice. A master-mix of RT enzyme, RNase inhibitor, and buffer was then added to the samples, and they were incubated at 42° C. for 30 minutes followed by 80° C. for 5 minutes. Each plate of samples was combined into a single 2 ml tube and purified with AMPureXP beads. N1 PCR master-mix was added and samples were incubated for 94° C. for 2 minutes, followed by 15 cycles of 94° C. for 30 seconds, 55° C. for 3 minutes, and 68° C. for 1 minute, followed by 68° C. for 7 minutes. Samples were purified with AMPureXP beads and N2 PCR master-mix was added. Samples were incubated with the same thermal cycler program as above for 12 cycles. These final libraries were then purified with AMPureXP beads and analyzed for quality and concentration by Agilent Bioanalyzer and Illumina Library Quantification Kit (KAPA Biosystems), respectively. Libraries were normalized to equivalent concentration and pooled for paired-end 100 bp sequencing on an Illumina HiSeq 2500 instrument.
Sequencing data was analyzed using Cellular Research Precise Analysis Pipeline on the SevenBridges platform, which included analyzing sequencing quality with FASTQC, trimming adapters and filtering reads, demultiplexing based on sample barcodes, aligning reads with Bowtie 2, and determining the number of unique molecular indices per gene. Network inference was based on mutual information of gene expression from all DMSO- and small molecule-exposed samples as described in Margolin et al., BMC Bioinformatics. 2006; 7 Suppl 1:S7. Network diagram was generated using NetworkX (Hagberg et al., Exploring Network Structure, Dynamics, and Function using NetworkX. SciPy. 2008) based on network connections inferred from the small molecule screen data as described above with colors based on whole transcriptome RNA-seq gene expression of isogenic N1^+/− compared to WT ECs.
Promising small molecules were identified using either K-nearest neighbor (KNN) or hierarchical clustering algorithms. […]

In experiment [2] the test system is N1^+/− ECs. Kind of experiment: Whole transcriptome RNA-seq of N1^+/− ECs treated with network-correcting molecules. The class given is cell-based, human. The following applies: for repressive effect on cadherin-11 mRNA expression: FIG. 9A; for restoration of the N1-dependent network as a whole: FIGS. 2E, 3A. Here is the method: ECs were lysed and RNA was isolated using the Qiagen RNeasy Micro purification kit. RNA-seq libraries were constructed using the Clontech SMRTer Stranded RNA-seq Library Prep Kit for Illumina per kit protocol. Libraries were analyzed by Agilent Bioanalyzer, normalized to equivalent concentration, pooled, gel purified, and sequenced 75 bp paired-end on an Illumina NextSeq instrument with 10% PhiX.
Sequencing quality was assessed with FASTQC (located on the web by placing “www.” in front of “bioinformatics.babraham.ac.uk/projects/fastqc/”). Reads were aligned to the hg19 (Homo sapiens assembly February 2009) transcriptome and genome using the Spliced Transcripts Alignment to a Reference (STAR) Aligner (Dobin et al., Bioinformatics. 2012; 29:15-21) and differential expression was analyzed using Cuffdiff (Trapnell et al., Nat Biotechnol. 2012; 31:46-53). HOPACH was used for clustering with the correlation metric (van der Laan and Pollard; located on the web by placing “www.” in front of “bioconductor.org/packages/devel/bioc/manuals/hopach/man/hopach.pdf”. GO analyses were completed using GO-Elite and ToppGene (Chen et al., Nucleic Acids Research. 2009; 37:W305-W311; Zambon et al., Bioinformatics. 2012; 28:2209-2210). Network diagrams were generated using NetworkX (Hagberg et al., SciPy. 2008) based on network connections inferred from mRNA-seq gene expression of isogenic N1^+/− compared to WT ECs with colors based on whole transcriptome RNA-seq gene expression of DMSO- vs small molecule-treated WT and N1^+/− ECs.

A further experiment has as its system N1^+/−/mTR^G2 mice. Kind of experiment: In vivo small molecule treatment, AV and PV peak velocity by echocardiography. The following applies: XCT790 5 mg/kg/day i.p., TG003 0.3 or 2 mg/kg/day i.p. pooled; for AV stenosis by echocardiography: AV peak velocity versus DMSO; for PV stenosis by echocardiography: PV peak velocity versus DMSO. The method, then:
Protocols were reviewed/approved by UCSF Institutional Animal Care and Use Committee, San Francisco, CA. N1^+/− and mTR^het C57Bl6 mice (purchased from Jackson Labs: #002797 and #004132, respectively) were used to generate double mutant animals. Breedings were performed as previously described (Theodoris et al., The Journal of Clinical Investigation. 2017; 127:1683) to generate N1^+/−/[…] mice. Mice were treated with XCT790 (5 mg/kg/day), TG003 (0.3 mg/kg/day or 2 mg/kg/day, results pooled for analysis), Fmoc-leu (0.6 mg/kg/day), GSK837149A (4.5 mg/kg/day), biperiden (10 mg/kg/day), CB1954 (15 mg/kg/day), putrescine (0.26 mg/kg/day), naloxone (25 mg/kg/day), all by intraperitoneal injection, and RO4929097 (60 mg/kg/day) by oral gavage, or equivalent volume of solvent (DMSO or saline) for four weeks starting at the fourth postnatal week.
Echocardiography was performed under isofluorane anesthesia with standard measurement techniques using the Vevo 770 Imaging System (VisualSonics) equipped with an RMV-707B transducer with central frequency of 30 MHz. Peak blood flow velocity through AVs and PVs was obtained by pulsed wave Doppler in the modified parasternal long and short axis views. The average of three cardiac cycles was used for each measurement.

On to `CCN1/C(=C/C(C)=O)Sc2ccc(OC)cc21` [TG003, (Z)-1-(3-ethyl-5-methoxy-2,3-dihydrobenzothiazol-2-ylidene)propan-2-one], for which the “KNN classification of treated N1^+/− ECs in validation trials” value with N1^+/− ECs [1] is on record as “classified as WT”. Moreover, the “repression of genes aberrantly activated in N1-haploinsufficient ECs” value in the experiment on N1^+/− ECs [2] (FIG. 2A) was “broadly effective at repressing these genes, albeit to a lesser degree”. Also, in the experiment on N1^+/− ECs [2], the “repressive effect on cadherin-11 mRNA expression” value is given as “strongest repressive effect” and the “restoration of the N1-dependent network as a whole” value is reported as “strong restorative effect”. For the same molecule, in the experiment with N1^+/−/mTR^G2 mice, the “AV stenosis by echocardiography” value was “did not significantly impact” and the “PV stenosis by echocardiography” value is “did not significantly impact”.
Regarding `COc1cc(/C=C(\C#N)C(=O)Nc2nnc(C(F)(F)F)s2)ccc1OCc1ccc(C(F)(F)F)cc1C(F)(F)F` [XCT790, 2E-3-(4-{[2,4-bis(trifluoromethyl)benzyl]oxy}-3-methoxyphenyl)-2-cyano-N-[5-(trifluoromethyl)-1,3,4-thiadiazol-2-yl]acrylamide], in the experiment on N1^+/− ECs [1], the “KNN classification of treated N1^+/− ECs in validation trials” value is listed as “classified as WT”. For the same molecule, in the experiment on N1^+/− ECs [2] (FIG. 2A), the “repression of genes aberrantly activated in N1-haploinsufficient ECs” value was “most effective at repressing genes aberrantly activated in N1-haploinsufficient ECs”; the “restoration of transcription of genes repressed in N1-haploinsufficient ECs” value is “effectively restored the transcription of mesoderm and cell cycle checkpoint genes”. In the experiment on N1^+/− ECs [2] (FIG. 2B), the “correlation of gene expression of treated N1^+/− ECs with WT ECs” value is listed as “correlated most strongly; also recorded: correlate most strongly with WT ECs”. Also, the “restorative effect on regulatory nodes SOX7 and TCF4” value in the experiment with N1^+/− ECs [2] (FIG. 2D) is listed as “strongest restorative effect”. In the experiment with N1^+/− ECs [2], the “repressive effect on cadherin-11 mRNA expression” value is given as “strongest repressive effect”; the “restoration of the N1-dependent network as a whole” value was “most effective at restoring both aberrantly activated and repressed genes; also recorded: corrected the greatest number of genes to the greatest degree; also recorded: strongest restorative effect on central regions of the network”. For the same molecule, in the experiment with N1^+/−/mTR^G2 mice, the “AV stenosis by echocardiography” value is on record as “showed a trend of reducing AV stenosis” and the “PV stenosis by echocardiography” value is “sufficient to prevent PV stenosis”.
